Here are results for 1 substance from patent US7122193B1 (priority 1994, dated 2006).

For one assay, the target named is I-A^d class II molecules (Mus musculus, UniProt P01921+P04228). The class given is cell-based.
The target of the next assay is I-E^d class II molecules (Mus musculus, UniProt P01904+P01915). The assay is classed as cell-based.
I-E^d class II molecules, sequence (P01904 26-255 limits assumed): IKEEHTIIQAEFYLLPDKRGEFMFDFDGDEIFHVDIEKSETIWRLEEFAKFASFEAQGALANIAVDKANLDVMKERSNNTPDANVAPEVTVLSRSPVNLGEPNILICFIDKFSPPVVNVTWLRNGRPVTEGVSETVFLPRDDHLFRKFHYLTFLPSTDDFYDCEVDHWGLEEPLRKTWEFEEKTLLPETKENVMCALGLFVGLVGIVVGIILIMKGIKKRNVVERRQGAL
I-E^d class II molecules, sequence (P01915 27-264 limits assumed): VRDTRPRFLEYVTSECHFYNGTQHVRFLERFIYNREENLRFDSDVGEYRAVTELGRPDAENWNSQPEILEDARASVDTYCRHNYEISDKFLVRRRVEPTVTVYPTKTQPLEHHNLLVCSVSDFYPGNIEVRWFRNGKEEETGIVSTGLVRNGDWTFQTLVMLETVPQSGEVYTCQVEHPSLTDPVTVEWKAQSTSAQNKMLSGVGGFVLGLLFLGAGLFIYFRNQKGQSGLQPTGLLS

I-A^d class II molecules, sequence (P04228 24-256 limits assumed): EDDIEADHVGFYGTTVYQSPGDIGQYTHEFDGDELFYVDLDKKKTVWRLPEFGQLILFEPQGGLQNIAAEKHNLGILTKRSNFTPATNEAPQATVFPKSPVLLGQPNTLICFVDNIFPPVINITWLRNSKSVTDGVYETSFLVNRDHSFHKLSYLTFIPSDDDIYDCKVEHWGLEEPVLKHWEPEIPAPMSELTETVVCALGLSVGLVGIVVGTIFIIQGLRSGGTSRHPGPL
I-A^d class II molecules, sequence (P01921 28-265 limits assumed): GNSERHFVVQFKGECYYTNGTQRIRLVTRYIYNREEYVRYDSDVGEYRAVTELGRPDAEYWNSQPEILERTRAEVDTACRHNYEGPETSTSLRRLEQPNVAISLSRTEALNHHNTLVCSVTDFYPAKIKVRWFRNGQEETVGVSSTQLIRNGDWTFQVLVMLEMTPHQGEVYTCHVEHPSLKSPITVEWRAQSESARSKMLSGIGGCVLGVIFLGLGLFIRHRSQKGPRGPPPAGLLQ

On to “CH3CO-(D)Thr-(D)Asp-(D)Lys-(D)Tyr-(D)Thr-(D)Ile-(D)Lys-(D)Trp-(D)Val-(D)Ala-(D)Phe-(D)Leu-(D)Lys-NH2”, for which, at I-A^d class II molecules, the “binding to I-A^d transfected fibroblasts, in words” value is “Neither the L- nor the retro-inverso peptides bound”. Further, the “inhibition (of IL-2 production / binding of cI 12–26)” value on I-E^d class II molecules was “up to 56%”.
